Results reported in publication PMC7279038, “Antioxidant and Neuroprotective Effects Induced by Cannabidiol and Cannabigerol in Rat CTX-TNA2 Astrocytes and Isolated Cortexes” (International Journal of Molecular Sciences, 2020).

Columns and labels:
[1] = ABTS scavenging ability test; conditions: mean ± S.D., n = 3
Description: For the 2,2′-azino-bis(3-ethylbenzothiazoline) 6-sulfonic acid (ABTS) radical scavenging assay, ABTS+ was produced directly by reacting 7 mM ABTS solution with 2.45 mM potassium persulfate and allowing the mixture to stand for […] in the dark at room temperature. Prior to beginning the assay, ABTS solution was diluted with methanol to an absorbance of 0.700 ± 0.02 at 734 nm. Sample solution was added to ABTS solution (2 mL) and mixed. The sample absorbance was read at 734 nm after a 30 min incubation at room temperature. The ABTS radical scavenging activity was expressed as IC50 values.

synaptotagmin-1 (Syt 1) = test: Untargeted proteomic analysis of cortexes, Syt 1; set-up: species or system rat; conditions: CBD 1000 nM, CBG 1 nM
Description: (§1) Sprague–Dawley rats (200–250 g) were sacrificed by CO2 inhalation (Italian Health Ministry authorization N. F4738.N.XTQ, delivered on 11th November 2018) and isolated prefrontal cortex specimens were immediately explanted and incubated in thermostatic shaking bath at 37 °C for 1 h (incubation period), in Krebs–Ringer buffer at the following K^+ concentrations:
(§2) Cortexes were stimulated with CBD (1000 nM) and CBD (1 nM). Afterwards, specimens were homogenized in perchloric acid solution (0.05 M) for the extraction and quantification of nitrites, via the aforementioned colorimetric Griess assay, and serotonin (5-HT), 5-hydroxyindoleacetic (5HIIA),3-hydroxykinurenine (3-HK) and kinurenic acid (KA) (ng/mg wet tissue) via high performance liquid chromatography analysis. Additionally, an untargeted proteomic analysis was carried out on the cortex homogenate. The analytical protocols for 5-HT, 5HIIA, 3-HK, KA and protein level determinations are described below. […]
(§3) After protein quantification, a volume corresponding to 50 μg of proteins was loaded onto a Nanosep 10-kDa-cutoff filter (Pall Corporation, Michigan, USA) and digested according to the protocol we routinely use in our laboratory, adapted from Distler et al. Briefly, the sample was washed twice with 200 μL urea buffer (8M urea, 100 mM Tris pH 8.5 in milliQ water) to remove the detergents present in the lysis buffer. […]

[2] = system: CTX-TNA2 rat astrocyte cell line; test: MTT assay; format: cell-based; conditions: for cell proliferation (MTT): basal conditions, 48 h, cannabidiol 1000 nM, cannabigerol 100 and 1000 nM; for protection from H2O2 cytotoxicity (MTT): cells challenged with 300 µM H2O2, CBD 1000 nM, CBG 1 nM
Description: The CTX-TNA2 rat astrocytes were purchased from the European Collection of Cell Cultures (ECACC), Sigma-Aldrich, Milan, Italy, and cultured as already indicated. Cells were grown in Dulbecco’s Modified Eagle Medium supplemented with 10% of FBS and penicillin–streptomycin (100 µgmL^−1) (all from EuroClone SpA Life-Sciences-Division, Milan, Italy) and maintained in a humified atmosphere of 5% CO2 at 37 °C. Cells were subcultivated at a ratio of 1.2 to 1.8 and the medium was changed every 3 days. CTX-TNA2 astrocytes were plated in 25 or 75 cm^2 flasks, according to experimental needing and cells between the eight and the 15 passage were used.
When indicated, the cells were treated with H2O2 300 µM for three hours and different concentrations of CBD (1–1000 nM) and CBG (1–1000 nM). The stock solutions were diluted in cell medium to the point that the concentration of DMSO in the samples was less than 0.0003%. Therefore, the addition of DMSO to the control samples was not necessary.
The 3 [4–dimethylthiazol-2yl]-2,5-diphenyl tetrazolium bromide (MTT) growth assay (Sigma-Aldrich S.r.l.) was used to assess cell proliferation as previously described. Briefly, The CTX-TNA2 cells were seeded into 96-well plate at 8 × 10^3 cells/well and treated as described above. After 24 and 48 h, a medium containing 0.5 mg/mL MTT was added to the cells, and the cells were incubated at 37 °C for 3 h. Following a further incubation of 30 min in DMSO, the absorbance at 570 nm was measured using a Multiscan GO microplate spectrophotometer (Thermo Fisher Scientific, Waltham, MA, USA).

syntaxin 1b (Stx 1b) = test: Untargeted proteomic analysis of cortexes, Stx 1b; set-up: species or system rat; conditions: CBD 1000 nM, CBG 1 nM
Description: as §1, §2, §3

5-HT receptor (5-HT1A) = conditions: cited from earlier work

Row | SMILES | IC50 [1] | effect on K+ 60 mM-induced reduction in Syt 1 level (synaptotagmin-1 (Syt 1)) | cell proliferation (MTT) [2] | protection from H2O2 cytotoxicity (MTT) [2] | effect on K+ 60 mM-induced reduction in Stx 1b level (syntaxin 1b (Stx 1b)) | effect on 5-HT1A activity (5-HT receptor (5-HT1A))
1 | CCCCCc1cc(O)c(C/C=C(\C)CCC=C(C)C)c(O)c1 [CBG, cannabigerol] | 1030 ± 10 µM | completely ineffective | increase in cell proliferation | effective at the lowest concentration (1 nM) | completely ineffective | moderately antagonized
2 | C=C(C)[C@@H]1CCC(C)=C[C@H]1c1c(O)cc(CCCCC)cc1O [CBD, Cannabidiol] | 1040 ± 10 µM | blocking the downregulation | increase in cell proliferation | effective in protecting the cells from oxidative damage | blocking the downregulation | activated
